Source: PubChem BioAssay (NCI)
“And” between values parts separate entries of the source, which are not always exact repeats. Identical values can stand only once.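 Dose response: 5 concentrations. Exposure: 48 h. Format: 96-well plates. Endpoint: linear interpolation; highest concentration if not reached. GI50 is the concentration that inhibits growth by half. Definition used: TGI = concentration required for complete inhibition of growth.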

Tests used:
Test in all cases: NCI tumour cell line growth inhibition, 48 h
CCRF-CEM leukemia = test system: CCRF-CEM leukemia
HCC-2998 colon = test system: HCC-2998 colon
HCT-15 colon = test system: HCT-15 colon
MDA-MB-435 = test system: MDA-MB-435
NCI-H522 lung = test system: NCI-H522 lung
OVCAR-4 ovarian = test system: OVCAR-4 ovarian
RXF 393 renal = test system: RXF 393 renal
SF-539 CNS = test system: SF-539 CNS
SNB-19 CNS = test system: SNB-19 CNS
UACC-62 melanoma = test system: UACC-62 melanoma

| Structure (SMILES) | TGI (CCRF-CEM leukemia) | TGI (HCC-2998 colon) | TGI (HCT-15 colon) | TGI (MDA-MB-435) | TGI (NCI-H522 lung) | TGI (OVCAR-4 ovarian) | TGI (RXF 393 renal) | TGI (SF-539 CNS) | TGI (SNB-19 CNS) | TGI (UACC-62 melanoma) | GI50 (CCRF-CEM leukemia) | GI50 (HCC-2998 colon) | GI50 (HCT-15 colon) | GI50 (MDA-MB-435) | GI50 (NCI-H522 lung) | GI50 (OVCAR-4 ovarian) | GI50 (RXF 393 renal) | GI50 (SF-539 CNS) | GI50 (SNB-19 CNS) | GI50 (UACC-62 melanoma) |
| --- | --- | --- | --- | --- | --- | --- | --- | --- | --- | --- | --- | --- | --- | --- | --- | --- | --- | --- | --- | --- |
| C[C@]12CC[C@H]3[C@@H](CCC4=CC(=O)CC[C@@]43C)[C@@H]1CC[C@@H]2C(=O)COS(=O)(=O)c1ccc(Br)cc1 | 3.01 µM | 8.74 µM | 55.7 µM | 32.8 µM | 2.97 µM | > 51.2 µM | > 50.8 µM | > 60.7 µM | 44.6 µM | 37.8 µM | – | – | – | – | – | – | – | – | – | – |
| Nc1ccccc1NC(=O)c1ccc(CN2CCC/C(=C\c3ccccn3)C2=O)cc1 | > 100 µM | 20.2 µM | > 100 µM | 1.77 µM | 3.76 µM | > 100 µM | 3.48 µM | > 100 µM | > 100 µM | 2.35 µM | 0.645 µM | 1.86 µM | 1.11 µM | 0.357 µM | 0.51 µM | 2.66 µM | 0.755 µM | 1.58 µM | 3.16 µM | 0.411 µM |
| CNc1cc2nc3cc(NC)c(C)cc3cc2cc1C | 33.3 µM | 14.7 µM | 91.1 µM | 18.3 µM | 5.06 µM | 3.26 µM | 2.37 µM | 16.2 µM | 16.6 µM | 34.5 µM | 1.08 µM | 1.6 µM | 3.7 µM | 2.48 µM | 0.552 µM | 1.03 µM | 1.09 µM | 2.06 µM | 1.48 µM | 8.82 µM |
| CC1=C(C(=O)Nc2ccc3[nH]ncc3c2)C(c2ccc(Cl)c(Cl)c2)CC(=O)N1 (configuration not stated) | > 25 µM | > 25 µM | > 25 µM | > 25 µM | > 25 µM | > 25 µM | > 25 µM | > 25 µM | > 25 µM | > 25 µM | 24.2 µM | > 25 µM | > 25 µM | > 25 µM | 19.5 µM | > 25 µM | 8.2 µM | > 16.8 µM | > 25 µM | 18.1 µM |
| Nc1nc2c(nnn2C2OC(CO)C(O)C2O)c(=O)[nH]1 (configuration not stated) | > 100 µM | > 27.3 µM | > 100 µM | > 100 µM | 6.74 µM | > 100 µM | 13.6 µM | > 39.7 µM | > 100 µM | 12.9 µM | 0.676 µM | 0.854 µM | 0.714 µM | 2.11 µM | 0.596 µM | 1.59 µM | 1.4 µM | 1.59 µM | 7.33 µM | 1.14 µM |
| Cc1[nH]c(C(=O)Nc2ccccc2OC2CCNCC2)c(Cl)c1Cl | 3.89 µM | 3.48 µM | 1.88 µM | 1.62 µM | 1.74 µM | 1.69 µM | 1.56 µM | 1.56 µM | 3.44 µM | 1.6 µM | 1.37 µM | 1.27 µM | 0.912 µM | 0.883 µM | 0.866 µM | 0.901 µM | 0.816 µM | 0.856 µM | 1.25 µM | 0.895 µM |
| COC(C(=O)C(O)C(C)O)C1Cc2cc3cc(OC4CC(OC5CC(O)C(O)C(C)O5)C(O)C(C)O4)c(C)c(O)c3c(O)c2C(=O)C1OC1CC(OC2CC(O)C(OC3CC(C)(O)C(O)C(C)O3)C(C)O2)C(O)C(C)O1 (configuration not stated) | – | – | 2.65 µg/mL and 1.5 µg/mL | – | – | 0.269 µg/mL and 0.143 µg/mL | – | – | > 150 µg/mL | – | 0.0112 µg/mL and 0.000853 µg/mL | 0.0117 µg/mL and 0.000297 µg/mL | 0.244 µg/mL and 0.00299 µg/mL | 0.0121 µg/mL and 0.339 µg/mL | 0.0112 µg/mL and 0.000596 µg/mL | 0.0242 µg/mL and 0.00192 µg/mL | 0.0112 µg/mL and 0.000246 µg/mL | 0.0112 µg/mL and 0.000474 µg/mL | 0.0402 µg/mL | 0.0112 µg/mL and 0.00054 µg/mL |
| CCOc1ccc2c(C)cc(=O)oc2c1 | > 100 µM | > 100 µM | > 100 µM | > 100 µM | > 100 µM | > 100 µM | > 100 µM | > 100 µM | > 100 µM | > 100 µM | – | – | – | – | – | – | – | – | – | – |
| C=C1COC(O)(C2OCOC(C3CC(=O)NC(=O)C3)C2O)C1C (configuration not stated) | 0.00744 µM | 0.0174 µM and 0.0244 µM | – | 0.037 µM | 0.00684 µM and 0.00593 µM and 0.0137 µM | 0.0181 µM and 0.0242 µM | 0.00759 µM and 0.0177 µM and 0.0104 µM | 0.0064 µM and 0.00602 µM | – | 0.0247 µM and 0.131 µM | – | 0.00218 µM | 0.00363 µM and 0.0127 µM | 0.00481 µM | 0.00201 µM | – | 0.00134 µM | 0.00165 µM | 0.0036 µM | 0.00275 µM and 0.0134 µM |
| CCCCCCC/C=C/[C@H]1O[C@]2(O)C(=O)C=C3C[C@@H](O[C@@H]4O[C@H](CO)[C@@H](O)C(O)[C@@H]4O)C[C@@H]3[C@H]2C=C1C (some centres not stated) | 4.9 µM | 9.82 µM | 4.59 µM | 5.69 µM | 1.81 µM | 7.83 µM | 2.62 µM | 5.12 µM | 8.04 µM | 6.96 µM | 1.04 µM | 4.93 µM | 1.04 µM | 1.21 µM | 0.664 µM | 2.75 µM | 0.82 µM | 1.32 µM | 3.52 µM | 1.79 µM |
| CC(C)(CCN=C(N)Nc1ccccn1)c1ccc(C(F)(F)F)cc1 | 58.4 µM | 29.6 µM | 29.2 µM | 29 µM | 30.8 µM | 28.1 µM | 29.6 µM | 29.4 µM | 33.1 µM | 29.8 µM | 17.7 µM | 15.1 µM | 14.4 µM | 15.1 µM | 14.5 µM | 11.8 µM | 14.6 µM | 15.3 µM | 16.9 µM | 15.7 µM |
| CCOC(=O)c1ccc2c(c1)nc(/C=C/c1ccc(Cl)cc1)n2-c1cc(C(C)(C)C)[nH]n1 | > 100 µM | > 100 µM | > 100 µM | > 100 µM | 10.6 µM | 7.31 µM | 6.48 µM | 5.09 µM | > 100 µM | 4.79 µM | 7.54 µM | > 100 µM | 4.26 µM | 10.5 µM | 2.84 µM | 1.9 µM | 2.21 µM | 2.09 µM | 5.93 µM | 1.47 µM |
| CCCCCc1cc[n+](CC(=O)c2ccc([N+](=O)[O-])cc2)cc1 | – | 17.6 µM | 49.9 µM | 14.6 µM | 8.53 µM | 13.1 µM | 94.4 µM | 72.1 µM | > 100 µM | 24.1 µM | – | 4.94 µM | 13.6 µM | 3.7 µM | 1.8 µM | 2.53 µM | 24.3 µM | 20.3 µM | 8.01 µM | 10.8 µM |
